US20250171430A1, “PYRAZOLYL COMPOUNDS AS KV7 CHANNEL ACTIVATORS” (Biohaven Therapeutics Ltd., priority 2022, published 2025)

Target: T1, Kv7.2/7.3 (Homo sapiens, UniProt O43525+O43526)
T1 construct: Kv7.2 tetracycline-induced, Kv7.3 constitutive
Test: Kv7.2/7.3 Activation Assay (Thallium Flux Assay)
Type: cell-based
Conditions: hKV7.2/7.3 cell line; test compound at single concentration of 10 μM; fluorescence at 90 sec normalized to positive control (retigabine, 30 μM)
In short: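 Human Kv7.2/7.3 cells with Kv7.2 induced overnight by 10 ng/mL tetracycline were loaded with FluxOR II Green for 1 h at 37 °C. Compounds were tested at 10 μM in 0.1% DMSO/extracellular solution, pH 7.4. Thallium/potassium stimulus was added after a 15 s baseline, and 90 s fluorescence (ex 475/em 530 nm) was normalized to 30 μM retigabine.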

SMILES | Kv7.2/7.3 Activity
Cn1nc(NC(=O)CC2(C(F)F)CC2)c(C2CCC2)c1-c1cc(F)c(F)c(F)c1 [Compound 265, N-(4-cyclobutyl-1-methyl-5-(3,4,5-trifluorophenyl)-1H-pyrazol-3-yl)-2-(1-(difluoromethyl)cyclopropyl)acetamide] | ++ (“++” High Activity ≥ 0.7)
C[C@@H](C(=O)Nc1nn(C)c(-c2cc(F)cc(F)c2)c1C1CCC1)C1CC(F)(F)C1 [Compound 267, (R)-N-(4-cyclobutyl-5-(3,5-difluorophenyl)-1-methyl-1H-pyrazol-3-yl)-2-(3,3-difluorocyclobutyl)propanamide] | ++ (“++” High Activity ≥ 0.7)
Cc1cccc(-c2c(NC(=O)C3CC(F)(F)C3)nn(C)c2C2CC(F)(F)C2)c1 [Compound 271, N-(5-(3,3-difluorocyclobutyl)-1-methyl-4-(m-tolyl)-1H-pyrazol-3-yl)-3,3-difluorocyclobutane-1-carboxamide] | + (“+” Moderate Activity 0.15-0.7)
Cn1nc(NC(=O)C[C@@H]2CC(F)(F)C2(F)F)c(C2CCC2)c1C1CCC(F)(F)CC1 [Compound 273, (R)-N-(4-cyclobutyl-5-(4,4-difluorocyclohexyl)-1-methyl-1H-pyrazol-3-yl)-2-(2,2,3,3-tetrafluorocyclobutyl)acetamide] | ++ (“++” High Activity ≥ 0.7)
Cn1nc(NC(=O)OC2CC(F)(F)C2)c(C2CCC2)c1C1CC(F)(F)C1 [Compound 274, 3,3-difluorocyclobutyl (4-cyclobutyl-5-(3,3-difluorocyclobutyl)-1-methyl-1H-pyrazol-3-yl)carbamate] | ++ (“++” High Activity ≥ 0.7)
Cn1nc(NC(=O)OC2CC(F)(F)C2)c(C2CCC2)c1-c1ccc(C(F)(F)F)cc1 [Compound 279, 3,3-difluorocyclobutyl (4-cyclobutyl-1-methyl-5-(4-(trifluoromethyl)phenyl)-1H-pyrazol-3-yl)carbamate] | + (“+” Moderate Activity 0.15-0.7)
Cn1nc(NC(=O)OCC(F)F)c(C2CCC2)c1C1COC1 [Compound 280, 2,2-difluoro-213-ethyl (4-cyclobutyl-1-methyl-5-(oxetan-3-yl)-1H-pyrazol-3-yl)carbamate] | − (“−” No Activity < 0.15)
Cn1nc(NC(=O)C[C@@H]2CC(F)(F)C2(F)F)c(C2CCC2)c1-c1ccc(OC(F)F)nc1 [Compound 283, (R)-N-(4-cyclobutyl-5-(6-(difluoromethoxy)pyridin-3-yl)-1-methyl-1H-pyrazol-3-yl)-2-(2,2,3,3-tetrafluorocyclobutyl)acetamide] | ++ (“++” High Activity ≥ 0.7)
Cn1nc(NC(=O)C[C@@H]2CC(F)(F)C2(F)F)c(C2(C)CCC2)c1-c1ccc(F)cc1 [Compound 284, (R)-N-(5-(4-fluorophenyl)-1-methyl-4-(1-methylcyclobutyl)-1H-pyrazol-3-yl)-2-(2,2,3,3-tetrafluorocyclobutyl)acetamide] | ++ (“++” High Activity ≥ 0.7)
Cn1nc(NC(=O)OC2CC(F)(F)C2)c(C2CCC2)c1-c1cc(F)c(F)c(F)c1 [Compound 287, 3,3-difluorocyclobutyl (4-cyclobutyl-1-methyl-5-(3,4,5-trifluorophenyl)-1H-pyrazol-3-yl)carbamate] | ++ (“++” High Activity ≥ 0.7)
Cn1nc(NC(=O)NC2CC(F)(F)C2)c(C2CCC2)c1-c1cc(F)c(F)c(F)c1 [Compound 288, 1-(4-cyclobutyl-1-methyl-5-(3,4,5-trifluorophenyl)-1H-pyrazol-3-yl)-3-(3,3-difluorocyclobutyl)urea] | ++ (“++” High Activity ≥ 0.7)
CN(CC(F)(F)F)C(=O)Nc1nn(C)c(C2CC(F)(F)C2)c1C1CCC1 [Compound 291, 3-(4-cyclobutyl-5-(3,3-difluorocyclobutyl)-1-methyl-1H-pyrazol-3-yl)-1-methyl-1-(2,2,2-trifluoroethyl)urea] | ++ (“++” High Activity ≥ 0.7)
Cn1nc(NC(=O)NCC(F)(F)F)c(C2CCC2)c1C1CC(F)(F)C1 [Compound 293, 1-(4-cyclobutyl-5-(3,3-difluorocyclobutyl)-1-methyl-1H-pyrazol-3-yl)-3-(2,2,2-trifluoroethyl)urea] | ++ (“++” High Activity ≥ 0.7)

Other lines, results leading:

Kv7.2/7.3 Activity | SMILES
++ (“++” High Activity ≥ 0.7) | Cn1nc(NC(=O)C2CSC2)c(C2CCC2)c1-c1cc(F)c(F)c(F)c1 [Compound 263, N-(4-cyclobutyl-1-methyl-5-(3,4,5-trifluorophenyl)-1H-pyrazol-3-yl)thietane-3-carboxamide]
++ (“++” High Activity ≥ 0.7) | Cn1nc(NC(=O)CC2CC(F)(F)C2)c(C2CCC2)c1-c1cc(F)c(F)c(F)c1 [Compound 264, N-(4-cyclobutyl-1-methyl-5-(3,4,5-trifluorophenyl)-1H-pyrazol-3-yl)-2-(3,3-difluorocyclobutyl)acetamide]
++ (“++” High Activity ≥ 0.7) | Cn1nc(NC(=O)C[C@H]2CC(F)(F)C2(F)F)c(C2CCC2)c1-c1cc(F)cc(F)c1 [Compound 266, (S)-N-(4-cyclobutyl-5-(3,5-difluorophenyl)-1-methyl-1H-pyrazol-3-yl)-2-(2,2,3,3-tetrafluorocyclobutyl)acetamide]
+ (“+” Moderate Activity 0.15-0.7) | C[C@H](C(=O)Nc1nn(C)c(-c2cc(F)cc(F)c2)c1C1CCC1)C1CC(F)(F)C1 [Compound 268, (S)-N-(4-cyclobutyl-5-(3,5-difluorophenyl)-1-methyl-1H-pyrazol-3-yl)-2-(3,3-difluorocyclobutyl)propanamide]
++ (“++” High Activity ≥ 0.7) | Cn1nc(NC(=O)OC2CC(F)(F)C2)c(C2CCC2)c1-c1cc(F)cc(F)c1 [Compound 269, 3,3-difluorocyclobutyl (4-cyclobutyl-5-(3,5-difluorophenyl)-1-methyl-1H-pyrazol-3-yl)carbamate]
++ (“++” High Activity ≥ 0.7) | Cn1nc(NC(=O)NC2CC(F)(F)C2)c(C2CCC2)c1-c1cc(F)cc(F)c1 [Compound 270, 1-(4-cyclobutyl-5-(3,5-difluorophenyl)-1-methyl-1H-pyrazol-3-yl)-3-(3,3-difluorocyclobutyl)urea]
+ (“+” Moderate Activity 0.15-0.7) | Cn1nc(NC(=O)C2CC(F)(F)C2)c(C2CCC2)c1-c1ccc(OC(F)F)nc1 [Compound 272, N-(4-cyclobutyl-5-(6-(difluoromethoxy)pyridin-3-yl)-1-methyl-1H-pyrazol-3-yl)-3,3-difluorocyclobutane-1-carboxamide]
− (“−” No Activity < 0.15) | Cn1nc(NC(=O)C2COC2)c(C2CCC2)c1-c1cc(F)c(F)c(F)c1 [Compound 275, N-(4-cyclobutyl-1-methyl-5-(3,4,5-trifluorophenyl)-1H-pyrazol-3-yl)oxetane-3-carboxamide]
+ (“+” Moderate Activity 0.15-0.7) | Cn1nc(NC(=O)C2COC2)c(C2CCC2)c1-c1ccc(Cl)s1 [Compound 276, N-(5-(5-chlorothiophen-2-yl)-4-cyclobutyl-1-methyl-1H-pyrazol-3-yl)oxetane-3-carboxamide]
+ (“+” Moderate Activity 0.15-0.7) | Cn1nc(NC(=O)NC2CC(F)(F)C2)c(C2CCC2)c1-c1ccc(C(F)(F)F)cc1 [Compound 277, 1-(4-cyclobutyl-1-methyl-5-(4-(trifluoromethyl)phenyl)-1H-pyrazol-3-yl)-3-(3,3-difluorocyclobutyl)urea]
− (“−” No Activity < 0.15) | Cn1nc(NC(=O)C2COC2)c(C2CCC2)c1-c1ccc(F)c(F)c1 [Compound 278, N-(4-cyclobutyl-5-(3,4-difluorophenyl)-1-methyl-1H-pyrazol-3-yl)oxetane-3-carboxamide]
++ (“++” High Activity ≥ 0.7) | Cn1nc(NC(=O)OC2CC(F)(F)C2)c(C2CCC2)c1-c1ccc(OC(F)(F)F)cc1 [Compound 281, 3,3-difluorocyclobutyl (4-cyclobutyl-1-methyl-5-(4-(trifluoromethoxy)phenyl)-1H-pyrazol-3-yl)carbamate]
− (“−” No Activity < 0.15) | Cn1nc(NC(=O)C2CC(F)(F)C2)c(C2CCC2)c1C1COC1 [Compound 282, N-(4-cyclobutyl-1-methyl-5-(oxetan-3-yl)-1H-pyrazol-3-yl)-3,3-difluorocyclobutane-1-carboxamide]
+ (“+” Moderate Activity 0.15-0.7) | Cn1nc(NC(=O)NC2CC(F)(F)C2)c(C2CCC2)c1-c1ccc(OC(F)(F)F)cc1 [Compound 285, 1-(4-cyclobutyl-1-methyl-5-(4-(trifluoromethoxy)phenyl)-1H-pyrazol-3-yl)-3-(3,3-difluorocyclobutyl)urea]
++ (“++” High Activity ≥ 0.7) | Cn1nc(NC(=O)C2CC(F)(F)C2)c(C2(C)CCC2)c1-c1ccc(F)cc1 [Compound 286, 3,3-difluoro-N-(5-(4-fluorophenyl)-1-methyl-4-(1-methylcyclobutyl)-1H-pyrazol-3-yl)cyclobutane-1-carboxamide]
++ (“++” High Activity ≥ 0.7) | Cn1nc(NC(=O)C2CC(F)(F)C2)c(C2CCC2)c1C1CCC(F)(F)CC1 [Compound 289, N-(4-cyclobutyl-5-(4,4-difluorocyclohexyl)-1-methyl-1H-pyrazol-3-yl)-3,3-difluorocyclobutane-1-carboxamide]
++ (“++” High Activity ≥ 0.7) | Cn1nc(NC(=O)NC2CC(F)(F)C2)c(C2CCC2)c1C1CC(F)(F)C1 [Compound 290, 1-(4-cyclobutyl-5-(3,3-difluorocyclobutyl)-1-methyl-1H-pyrazol-3-yl)-3-(3,3-difluorocyclobutyl)urea]
++ (“++” High Activity ≥ 0.7) | Cn1nc(NC(=O)OC2CC(F)(F)C2)c(C2CCC2)c1C1CCC(F)(F)CC1 [Compound 292, 3,3-difluorocyclobutyl (4-cyclobutyl-5-(4,4-difluorocyclohexyl)-1-methyl-1H-pyrazol-3-yl)carbamate]
